Assay results reported in patent publication US7883715B2, “Pesticide compositions containing dicarboxylic acids” (Monsanto Technology LLC, priority 2002, dated 2011).
Like-named read-outs stand apart in the source and are kept apart here.

How the values were obtained:
ECHCF = assay: Greenhouse herbicidal effectiveness, ECHCF; format: in vivo, Japanese millet, barnyardgrass; conditions: Table 19A, 16 days after treatment
From the text: (§1) The following greenhouse testing procedure was used for evaluating compositions of the Examples to determine herbicidal effectiveness, except where otherwise indicated.
(§2) Seeds of the plant species indicated were planted in 88 mm square pots in a soil mix which was previously sterilized and prefertilized with a 14-14-14 NPK slow release fertilizer at a rate of 3.6 kg/m3. The pots were placed in a greenhouse with sub-irrigation. About one week after emergence, seedlings were thinned as needed, including removal of any unhealthy or abnormal plants, to create a uniform series of test pots.
(§3) The plants were maintained for the duration of the test in the greenhouse where they received a minimum of 14 hours of light per day. […] Exposure temperatures were not precisely controlled but averaged about 29° C. during the day and about 21° C. during the night. Plants were sub-irrigated throughout the test to ensure adequate soil moisture levels.
(§4) Pots were assigned to different treatments in a fully randomized experimental design with 6 replications. A set of pots was left untreated as a reference against which affects of the treatments could later be evaluated.
(§5) Application of glyphosate compositions was made by spraying with a track sprayer fitted with a 9501E nozzle calibrated to deliver a spray volume of 93 liters per hectare (l/ha) at a pressure of 165 kilopascals (kPa). After treatment, pots were returned to the greenhouse until ready for evaluation.
(§6) Treatments were made using dilute aqueous compositions. These could be prepared as spray compositions directly from their ingredients, or by dilution with water of preformulated concentrate compositions.
(§7) For evaluation of herbicidal effectiveness, all plants in the test were examined by a single practiced technician, who recorded percent control, a visual measurement of the effectiveness of each treatment by comparison with untreated plants. […] The reported % control values represent the average for all replicates of each treatment.

TRZVX = assay: Greenhouse herbicidal effectiveness, TRZVX; format: in vivo, wheat; conditions: Table 19A, 16 days after treatment
From the text: as §1, §2, §3, §4, §5, §6, §7

ABUTH = assay: Greenhouse herbicidal effectiveness, ABUTH; format: in vivo, velvetleaf; conditions: for efficacy ABUTH: Table 19A, 16 days after treatment; for inhibition at 2 g/ha / inhibition at 3 g/ha / inhibition at 4 g/ha / inhibition at 5 g/ha: Abutilon theophrasti
From the text: as §1, §2, §3, §4, §5, §6, §7

plants = assay: Whole plant response to oxalic acid by itself; format: in vivo; conditions: enzyme studies and whole plant response
From the text: Glyphosate inhibits the shikimic acid pathway which leads to the biosynthesis of aromatic compounds including amino acids, plant hormones and vitamins. Specifically, glyphosate curbs the conversion of phosphoenolpyruvic acid (PEP) and 3-phosphoshikimic acid to 5-enolpyruvyl-3-phosphoshikimic acid by inhibiting the EPSPS enzyme. It is believed that oxalic acid and other dicarboxylic acids enhance the binding efficiency of glyphosate to the S3P-EPSPS complex, resulting in a whole plant response to the oxalate at a given glyphosate concentration. […] This would lower the Kd of the S3P-EPSPS-glyphosate ternary complex. Data reported in the literature from x-ray crystallography have clearly identified the 427 amino acid side chains. Each of the six α-helices in the top domain and four of the six α-helices in the lower domain are capped with basic amino acid residues. Electrostatic interaction of a dicarboxylic acid or other compound of the proper stearic requirement with these basic amino acid residues on the surface of the two domains of the enzyme are believed to produce a stapling action. Such stapling action is possible only on at least a partially closed conformation of the ternary complex of S3P-EPSPS-glyphosate. […] Any compound with stapling action to close the ternary complex tighter, thereby enhancing the inhibition of the enzyme is a suitable enhancer component of the invention.

EPSPS enzyme = target: T1, EPSPS enzyme (Escherichia coli, UniProt P0A6D3); assay: Enzyme studies of EPSPS inhibition; format: biochemical; conditions: oxalic acid without glyphosate
T1 sequence (P0A6D3 1-427): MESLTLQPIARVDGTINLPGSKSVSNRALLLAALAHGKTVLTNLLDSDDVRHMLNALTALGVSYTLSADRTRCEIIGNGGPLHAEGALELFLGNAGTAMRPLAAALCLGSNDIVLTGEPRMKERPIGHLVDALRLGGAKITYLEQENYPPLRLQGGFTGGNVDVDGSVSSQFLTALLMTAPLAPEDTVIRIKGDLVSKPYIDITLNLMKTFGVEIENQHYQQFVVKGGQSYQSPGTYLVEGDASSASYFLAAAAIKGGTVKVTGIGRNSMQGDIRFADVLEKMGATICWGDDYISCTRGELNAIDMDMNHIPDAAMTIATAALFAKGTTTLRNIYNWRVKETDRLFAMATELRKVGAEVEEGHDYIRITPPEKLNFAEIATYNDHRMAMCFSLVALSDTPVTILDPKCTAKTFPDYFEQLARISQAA
From the text: It has been discovered that oxalic acid and derivatives thereof enhance the pesticidal activity of a pesticide by acting as either an allosteric or cooperative effecter of the inhibition of the target enzyme 5-enolpyruvylishikimate-3-phosphate synthase (hereinafter referred to as EPSP synthase or EPSPS). For example, oxalic acid increases the inhibition of EPSPS enzyme by glyphosate to enhance the physiological response of plants at the enzyme level. […] In other words, the oxalic acid is absorbed and systemically transported throughout the plant.
Glyphosate inhibits the shikimic acid pathway which leads to the biosynthesis of aromatic compounds including amino acids, plant hormones and vitamins. Specifically, glyphosate curbs the conversion of phosphoenolpyruvic acid (PEP) and 3-phosphoshikimic acid to 5-enolpyruvyl-3-phosphoshikimic acid by inhibiting the EPSPS enzyme. It is believed that oxalic acid and other dicarboxylic acids enhance the binding efficiency of glyphosate to the S3P-EPSPS complex, resulting in a whole plant response to the oxalate at a given glyphosate concentration. […] This would lower the Kd of the S3P-EPSPS-glyphosate ternary complex. Data reported in the literature from x-ray crystallography have clearly identified the 427 amino acid side chains. […]

[1] = 1 g a.e./ha, tank mix OTH1 1 % v/v
[2] = 3 g a.e./ha, tank mix OTH1 1 % v/v
[3] = 5 g a.e./ha, tank mix OTH1 1 % v/v
[4] = 10 g a.e./ha, tank mix OTH1 1 % v/v

COc1cc(OC)nc(NC(=O)NS(=O)(=O)c2ncccc2C(=O)N(C)C)n1 [nicosulfuron]
efficacy ECHCF (ECHCF; 1 g a.e./ha, no OTH1): 0.8 | efficacy ECHCF (ECHCF; [1]): 4 | efficacy ECHCF (ECHCF; 3 g a.e./ha, no OTH1): 13 | efficacy ECHCF (ECHCF; [2]): 10 | efficacy ECHCF (ECHCF; 5 g a.e./ha, no OTH1): 40 | efficacy ECHCF (ECHCF; [3]): 37 | efficacy ECHCF (ECHCF; 10 g a.e./ha, no OTH1): 51 | efficacy ECHCF (ECHCF; [4]): 42 | efficacy TRZVX (TRZVX; 1 g a.e./ha, no OTH1): 5 | efficacy TRZVX (TRZVX; [1]): 3 | efficacy TRZVX (TRZVX; 3 g a.e./ha, no OTH1): 15 | efficacy TRZVX (TRZVX; [2]): 25 | efficacy TRZVX (TRZVX; 5 g a.e./ha, no OTH1): 50 | efficacy TRZVX (TRZVX; [3]): 47 | efficacy TRZVX (TRZVX; 10 g a.e./ha, no OTH1): 65 | efficacy TRZVX (TRZVX; [4]): 67 | efficacy ABUTH (ABUTH; 1 g a.e./ha, no OTH1): 0.8 | efficacy ABUTH (ABUTH; [1]): 6 | efficacy ABUTH (ABUTH; 3 g a.e./ha, no OTH1): 12 | efficacy ABUTH (ABUTH; [2]): 8 | efficacy ABUTH (ABUTH; 5 g a.e./ha, no OTH1): 14 | efficacy ABUTH (ABUTH; [3]): 10 | efficacy ABUTH (ABUTH; 10 g a.e./ha, no OTH1): 28 | efficacy ABUTH (ABUTH; [4]): 58

O=C(O)C(=O)O [oxalic acid, Oxalic Acid]
herbicidal property by itself (plants): does not have any herbicidal property | inhibition at 2 g/ha (ABUTH; 336 h, read-out: % inhibition ABUTH (14 DAT), oxalate/oxalic acid alone, 2 g a.e./ha, 14 DAT, Table 44A): 0% | inhibition at 3 g/ha (ABUTH; 336 h, read-out: % inhibition ABUTH (14 DAT), oxalate/oxalic acid alone, 3 g a.e./ha, 14 DAT, Table 44A): 0% | inhibition at 4 g/ha (ABUTH; 336 h, read-out: % inhibition ABUTH (14 DAT), oxalate/oxalic acid alone, 4 g a.e./ha, 14 DAT, Table 44A): 0% | inhibition at 5 g/ha (ABUTH; 336 h, read-out: % inhibition ABUTH (14 DAT), oxalate/oxalic acid alone, 5 g a.e./ha, 14 DAT, Table 44A): 0% | inhibition at 2 g/ha (ABUTH; 480 h, read-out: % inhibition ABUTH (20 DAT), oxalate/oxalic acid alone, 2 g a.e./ha, 20 DAT, Table 44A): 0% | inhibition at 3 g/ha (ABUTH; 480 h, read-out: % inhibition ABUTH (20 DAT), oxalate/oxalic acid alone, 3 g a.e./ha, 20 DAT, Table 44A): 0% | inhibition at 4 g/ha (ABUTH; 480 h, read-out: % inhibition ABUTH (20 DAT), oxalate/oxalic acid alone, 4 g a.e./ha, 20 DAT, Table 44A): 0% | inhibition at 5 g/ha (ABUTH; 480 h, read-out: % inhibition ABUTH (20 DAT), oxalate/oxalic acid alone, 5 g a.e./ha, 20 DAT, Table 44A): 0% | inhibitory effect on the EPSPS enzyme per se (EPSPS enzyme): do not have any inhibitory effect on the enzyme per se
